Experimental data: US20240255506A1, “PAIRED-CELL PROFILING SYSTEMS FOR HIGH-THROUGHPUT SCREENING SYNCYTIUM FORMATION” (priority 2023, published 2024)

Tests used:
[1] = tested on: SARS-COV-2 spike-induced syncytium formation in A549-ACE2 cells; type: cell-based; details: A549-ACE2-GFP1-10 cells pre-incubated with drug 20 min in FBS-free medium, then mixed with 293T-spike-GFP11-mCherry cells, 24 h
[2] = tested on: SARS-COV-2-induced syncytium formation in Vero E6 cells; details: drug screen with more than 3,000 approved drugs (ref. 19); cited from earlier work
SARS-COV-2 = details: Vero E6 cells; previous study (ref. 25); cited from earlier work

Row | SMILES | cell-cell fusion process (syncytium formation) [1] | SARS-COV-2-induced syncytium formation [2] | SARS-COV-2-induced cytotoxicity (SARS-COV-2)
1 | O=C1NC(=NS(=O)(=O)c2cccc3ccccc23)S/C1=C\c1ccc(Br)cc1 [Pitstop 2] | suppressed the cell-cell fusion process |  | 
2 | COCCCC/C(=N\OCCN)c1ccc(C(F)(F)F)cc1 [fluvoxamine] |  | some inhibitory effects | 
3 | CC(CN1c2ccccc2Sc2ccccc21)N(C)C (stereo not shown) [promethazine] |  | some inhibitory effects | reduces SARS-COV-2-induced cytotoxicity
